Several values for one entry are separate records, joined by “and”; a condition that tells them apart may be missing. Identical values can stand only once.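 Growth conditions: 96-well plates. Treatment: test compound, 48 hours, 5 concentrations. Analysis: linear interpolation between bracketing concentrations; unreached endpoints set to highest concentration. Abbreviation: GI50, concentration required for 50% inhibition of growth. TGI denotes the concentration required for complete inhibition of growth.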
Columns and labels:
Assay in all cases: NCI tumour cell line growth inhibition, 48 h
SK-MEL-5 melanoma = tested on: SK-MEL-5 melanoma
DMS 273 small cell lung = tested on: DMS 273 small cell lung
DLD-1 colon = tested on: DLD-1 colon
EKVX NSCLC = tested on: EKVX NSCLC
KM20L2 colon = tested on: KM20L2 colon
OVCAR-8 ovarian = tested on: OVCAR-8 ovarian
HS 578T breast = tested on: HS 578T breast
T-47D breast = tested on: T-47D breast
MDA-MB-435 = tested on: MDA-MB-435
ACHN renal = tested on: ACHN renal

For `C=CCCCCn1c2ccccc2c2c(C)c3cnccc3c(C)c21`, the TGI (SK-MEL-5 melanoma) was 16.7 µM, the TGI (DMS 273 small cell lung) was 20.5 µM and the TGI (DLD-1 colon) was 29.9 µM. For the same molecule, the TGI (EKVX NSCLC) was 34.4 µM, the TGI (KM20L2 colon) was 31.9 µM and the TGI (OVCAR-8 ovarian) was 21.2 µM.

`CCC1(OC(=O)CN)C(=O)OCc2c1cc1n(c2=O)Cc2cc3cc4c(cc3nc2-1)OCO4` (stereo not drawn) was tested, and the GI50 (SK-MEL-5 melanoma) was less than 0.01 µM, the TGI (SK-MEL-5 melanoma) was 0.0759 µM and the GI50 (DMS 273 small cell lung) was less than 0.01 µM. For the same molecule, the TGI (DMS 273 small cell lung) was 0.0656 µM and 0.358 µM, the GI50 (DLD-1 colon) was 0.278 µM and 0.203 µM and the TGI (DLD-1 colon) was 40.5 µM and > 100 µM. The GI50 (EKVX NSCLC) was 0.0106 µM and the TGI (EKVX NSCLC) was 0.495 µM.

With `COC(=O)[C@@H]1C=C[C@H](NC(C)=O)C1` the TGI (SK-MEL-5 melanoma) was greater than 100 µM, the TGI (HS 578T breast) was greater than 100 µM and the TGI (T-47D breast) was greater than 100 µM. For the same molecule, the TGI (OVCAR-8 ovarian) was greater than 100 µM and the TGI (MDA-MB-435) was greater than 100 µM.

Molecule `Cn1c(=O)n(CC2CS2)c2ccccc21` (stereo not drawn) has a TGI (ACHN renal) greater than 100 µM, a TGI (DMS 273 small cell lung) greater than 100 µM and a TGI (DLD-1 colon) greater than 100 µM. The TGI (EKVX NSCLC) was greater than 100 µM and the TGI (KM20L2 colon) was greater than 100 µM.

Work on `CC1(C)[C@@H](OC(N)=O)C=C[C@]2(CO)[C@H]3CC[C@]4(C)[C@@H](c5ccc(=O)oc5)[C@@H](Cl)C[C@]4(O)C3=CC[C@@H]12` yielded a GI50 (SK-MEL-5 melanoma) of 0.00269 µM, a TGI (SK-MEL-5 melanoma) of 0.0158 µM and a GI50 (ACHN renal) of less than 0.0001 µM. The TGI (ACHN renal) was 0.00262 µM, the GI50 (HS 578T breast) was less than 0.0001 µM and the TGI (HS 578T breast) was 0.00837 µM. It also gave a GI50 (T-47D breast) of 0.00359 µM, a TGI (T-47D breast) of 0.0326 µM and a GI50 (EKVX NSCLC) of less than 0.0001 µM. For the same molecule, the TGI (EKVX NSCLC) was 0.00806 µM, the GI50 (OVCAR-8 ovarian) was 0.0028 µM and the TGI (OVCAR-8 ovarian) was 0.0151 µM. For the same molecule, the GI50 (MDA-MB-435) was 0.00814 µM and the TGI (MDA-MB-435) was 0.0215 µM.

For `CCN(CCCl)c1cccc(NC(=O)c2ccc(C(=O)Nc3cccc(CN(C)C)c3)cc2)c1`, the TGI (ACHN renal) was 0.624 µM, the TGI (HS 578T breast) was 0.399 µM and the TGI (T-47D breast) was 0.662 µM. The TGI (OVCAR-8 ovarian) was 1.35 µM and the TGI (MDA-MB-435) was 0.114 µM.

`C=C(C)[C@@H]1CC[C@]2(CO)CC[C@]3(C)[C@H](CC[C@@H]4[C@@](C)(CCCN)[C@H](C(=C)C)CC[C@]43C)[C@@H]12` showed a GI50 (ACHN renal) of 1.82 µM, a TGI (ACHN renal) of 3.21 µM and a GI50 (MDA-MB-435) of 1.72 µM. It also gave a TGI (MDA-MB-435) of 3.16 µM.

In the case of `CCN(CC)/[N+]([O-])=N/O`, the TGI (SK-MEL-5 melanoma) is reported as greater than 100 µM, the TGI (ACHN renal) is reported as greater than 100 µM and the TGI (DMS 273 small cell lung) is reported as greater than 100 µM. For the same molecule, the TGI (EKVX NSCLC) was greater than 100 µM, the TGI (KM20L2 colon) was greater than 100 µM and the TGI (OVCAR-8 ovarian) was greater than 100 µM.

Reference: PubChem BioAssay (NCI)
